PMC6749364, “Pharmacokinetics and Tissue Distribution of Alnustone in Rats after Intravenous Administration by Liquid Chromatography-Mass Spectrometry” (Molecules, 2019)

Assays:
[1] = Plasma pharmacokinetic study after single intravenous administration; format: in vivo; conditions: Sprague-Dawley, rat, rats, single i.v. 5 mg/kg
Protocol: In this study, a direct protein precipitation method was applied to extract alnustone and IS from the biological matrix. An aliquot 100 μL of plasma, 50 μL of IS solution (1 μg/mL) and 200 μL of precipitate agent acetonitrile with 0.5% formic acid was added into a 1.5 mL Eppendorf tube. The mixture was vortex-mixed for 30 s at room temperature, and centrifuged at 12,000× g for 10 min. […] The residuals were reconstituted in 100 μL of methanol-0.1% fomic acid water (20:80, v/v) by vortex mixing for 30 s. After centrifuging at 12,000× g for 10 min, a 10 μL aliquot of the supernatant was used for the UHPLC-MS/MS analysis. The mobile phase consisted of methanol and 0.1% formic acid water using a gradient dilution at a flow rate of 0.3 mL/min. The column temperature was maintained at 30 °C. Alnustone was quantitatively determined with MRM in the positive ion mode, and nitrogen was used to assist nebulization in the ESI source. The MS parameters were set as follows: The ionspray voltage (IS) 5500 V; nebulizer gas (gas 1) 19 arbitrary units; curtain gas (CUR) 10 arbitrary units; collision cell exit potential (CXP) 7.0 V; entrance potential (EP) 10.0 V. The optimization of the MS transitions using the multiple-reaction monitoring (MRM) mode were accomplished as alnustone m/z 262.9→105.2 and IS (caffeine) m/z 195.2→138.0, respectively. For the pharmacokinetic study, 12 SD rats fasted for 12 h with free access to water prior to administration. After the rats were tail intravenously administrated of alnustone (5 mg/kg), a blood sample (0.4 mL) was collected from the orbital vein into heparinized tubes at appropriate time intervals (2 min, 5 min, 10 min, 15 min, 30 min, 45 min, 1 […]). The blank plasma samples were prepared before dosing. All blood samples were immediately centrifuged at 12,000× g for 10 min and stored at -75 °C until analysis. The pharmacokinetic parameters were evaluated using DAS 3.2.8 pharmacokinetic program.

[2] = obtained by our previous pharmacological experiment; cited from earlier work
[3] = system: Bel-7402 (human hepatocellular carcinoma cells); parameters: method as in earlier work; conditions: Bel-7402 cell line; cited from earlier work
neuraminidase = system: neuraminidase; parameters: method as in PMID 20014777; conditions: cited from earlier work
[4] = Tissue distribution study after intravenous administration; format: in vivo, Sprague-Dawley rats; conditions: rats, i.v. 5 mg/kg; for Kp at 0.5 h / Kp at 1 h / Kp at 4 h / Kp at 2 h: n = 5
Protocol: The rat was sacrificed quickly by decapitation on the ice. The various tissues (heart, liver, spleen, lung, kidney, brain, stomach, intestine) were harvested and rinsed with ice-cold 0.9% NaCl to remove the superficial blood. After being blotted dry with filter paper, each tissue sample was weighed on ice and physiological saline added ([…]) to homogenize. Then, a 100 μL (equivalent to 50 mg) of tissue homogenate was taken and processed using the same method as the plasma samples processing method as shown in the above steps.
The mobile phase consisted of methanol and 0.1% formic acid water using a gradient dilution at a flow rate of 0.3 mL/min. The column temperature was maintained at 30 °C. Alnustone was quantitatively determined with MRM in the positive ion mode, and nitrogen was used to assist nebulization in the ESI source. The MS parameters were set as follows: The ionspray voltage (IS) 5500 V; nebulizer gas (gas 1) 19 arbitrary units; curtain gas (CUR) 10 arbitrary units; collision cell exit potential (CXP) 7.0 V; entrance potential (EP) 10.0 V. The optimization of the MS transitions using the multiple-reaction monitoring (MRM) mode were accomplished as alnustone m/z 262.9→105.2 and IS (caffeine) m/z 195.2→138.0, respectively.
For the tissue distribution study, 20 SD rats were randomly divided into four groups (5 rats for each time point) and fasted for 12 h with free access to water prior to administration. After the rats were tail intravenously administrated of alnustone (5 mg/kg), the tissue specimens (heart, liver, spleen, lung, kidney, brain, stomach and intestine) were collected at 0.5, 1, 2, and 4 h post-dosing, respectively. The blank tissues were prepared separately using drug-free SD rats. The tissue harvesting and homogenizing method were given in Section 3.5. For the plasma and tissue homogenate sample preparation method, also see Section 3.5.

[5] = Sprague-Dawley, rat, iv, Intestine
[6] = Sprague-Dawley, rat, iv, Kidney
[7] = Sprague-Dawley, rat, iv, Spleen
[8] = Sprague-Dawley, rat, iv, Stomach

Question: What does the source list for `O=C(/C=C/C=C/c1ccccc1)CCc1ccccc1` [alnustone, Alnustone]?
Answer: Tmax [1]: 2 min; AUC(0-inf) ([1]; n = 12): 6030 ± 472 ng·h/mL; Cmax ([1]; n = 12): 7070 ± 821 ng/mL; Vd ([1]; n = 12): 1.57 ± 0.18 L/kg; clearance ([1]; n = 12): 13.8 mL/min/kg; half-life ([1]; n = 12): 1.31 ± 0.19 h; MRT inf ([1]; n = 12, read-out: MRT0–∞): 1.6 ± 0.22 h; MRT last ([1]; read-out: MRT0-t (total mean residence time up to 10 h)): 1.6 ± 0.22 h; AUC(0-t) ([1]; up to 10 h, n = 12): 6010 ± 567 ng·h/mL; LD50 [2]: 200 mg/kg; antitumor activity in vitro [3]: significant antitumor activity; neuraminidase inhibitory activity (neuraminidase): showed neuraminidase inhibitory activity; Kp at 0.5 h ([4]; Sprague-Dawley, rat, iv, Brain): 0.11 ± 0.4; Kp at 1 h ([4]; Sprague-Dawley, rat, iv, Brain): 0.21 ± 0.56; Kp at 4 h ([4]; Sprague-Dawley, rat, iv, Brain, 4 h): 1.03 ± 0.08; Kp at 0.5 h ([4]; Sprague-Dawley, rat, iv, Heart): 0.36 ± 0.06; Kp at 1 h ([4]; Sprague-Dawley, rat, iv, Heart): 0.42 ± 0.1; Kp at 2 h ([4]; Sprague-Dawley, rat, iv, Heart): 0.59 ± 0.17; Kp at 4 h ([4]; Sprague-Dawley, rat, iv, Heart, 4 h): 1.78 ± 0.24; Kp at 0.5 h [4, 5]: 0.39 ± 0.07; Kp at 1 h [4, 5]: 0.66 ± 0.12; Kp at 2 h [4, 5]: 0.88 ± 0.19; Kp at 4 h ([4]; Sprague-Dawley, rat, iv, Intestine, 4 h): 1.18 ± 0.2; Kp at 0.5 h [4, 6]: 0.58 ± 0.07; Kp at 1 h [4, 6]: 0.74 ± 0.11; Kp at 2 h [4, 6]: 1.49 ± 0.27; Kp at 4 h ([4]; Sprague-Dawley, rat, iv, Kidney, 4 h): 1.86 ± 0.18; Kp at 0.5 h ([4]; Sprague-Dawley, rat, iv, Liver): 1.28 ± 0.34; Kp at 1 h ([4]; Sprague-Dawley, rat, iv, Liver): 1.31 ± 0.18; Kp at 2 h ([4]; Sprague-Dawley, rat, iv, Liver): 1.28 ± 0.29; Kp at 4 h ([4]; Sprague-Dawley, rat, iv, Liver, 4 h): 5.48 ± 0.66; Kp at 0.5 h ([4]; Sprague-Dawley, rat, iv, Lung): 1.3 ± 0.09; Kp at 1 h ([4]; Sprague-Dawley, rat, iv, Lung): 3.39 ± 0.39; Kp at 2 h ([4]; Sprague-Dawley, rat, iv, Lung): 4.55 ± 0.61; Kp at 4 h ([4]; Sprague-Dawley, rat, iv, Lung, 4 h): 15.8 ± 1.33; Kp at 0.5 h [4, 7]: 0.46 ± 0.06; Kp at 1 h [4, 7]: 1.24 ± 0.13; Kp at 2 h [4, 7]: 0.7 ± 0.06; Kp at 4 h ([4]; Sprague-Dawley, rat, iv, Spleen, 4 h): 1.54 ± 0.32; Kp at 0.5 h [4, 8]: 0.64 ± 0.14; Kp at 1 h [4, 8]: 0.52 ± 0.11; Kp at 2 h [4, 8]: 0.7 ± 0.03; Kp at 4 h ([4]; Sprague-Dawley, rat, iv, Stomach, 4 h): 3.66 ± 0.27; concentration at 4 h ([4]; Sprague-Dawley, rat, iv, brain, 4 h): 567 ng/mL; highest mean concentration in tissue ([4]; brain): 344.27 ng/g; time of maximum tissue concentration ([4]; brain): 1 h; highest mean concentration in tissue ([4]; heart): 900.97 ng/g; highest mean concentration in tissue ([4]; intestine): 1099.14 ng/g; time of maximum tissue concentration ([4]; intestine): 1 h; highest mean concentration in tissue ([4]; kidney): 1450.43 ng/g; highest mean concentration in tissue ([4]; liver): 3199.49 ng/g; highest mean concentration in tissue ([4]; lung): 5685.40 ng/g; time of maximum tissue concentration ([4]; lung): 1 h; blood-brain barrier penetration [4]: could enter the brain through the blood-brain barrier; highest mean concentration in tissue ([4]; spleen): 2077.14 ng/g; time of maximum tissue concentration ([4]; spleen): 1 h; highest mean concentration in tissue ([4]; stomach): 1588.90 ng/g
